Experimental data from ChEMBL document CHEMBL1781907, “Expeditious synthesis and biological evaluation of novel 2,N6-disubstituted 1,2-dihydro-1,3,5-triazine-4,6-diamines as potential antimalarials” (Eur J Med Chem, 2011).

Columns and labels:
[1] = Toxicity at human RBC assessed as haemolysis at 50 uM; assay type: cell-based; conditions: erythrocyte
Plasmodium falciparum [2] = assay: Antimalarial activity against chloroquine and cycloguanil-resistant Plasmodium falciparum FCR-3/Gambia ring stage infected in human red blood cells assessed as inhibition of [3H]-hypoxanthine incorporation incubated 24 hrs before addition of [3H]-hypoxanthine measured after 24 hrs; assay type: functional, cell-based
Plasmodium falciparum [3] = assay: Ratio of cycloguanil IC50 to compound IC50 for chloroquine and cycloguanil-resistant Plasmodium falciparum FCR-3/Gambia; assay type: functional

Compound | Activity [1] | IC50 (Plasmodium falciparum [2]) [µM] | Ratio IC50 (Plasmodium falciparum [3])
CC1(C)N=C(N)N=C(NCc2ccccc2)N1.Cl | Non-toxic | 49.8 | 
Cl.NC1=NC2(CCCCC2)NC(NCc2ccccc2)=N1 | Non-toxic | 9.89 | 
CC1(C)N=C(N)N=C(NCCc2ccc(Cl)cc2)N1.Cl | Non-toxic | 16.6 | 
Cl.NC1=NC(c2ccc([N+](=O)[O-])cc2)NC(NCCc2ccc(Cl)c(Cl)c2)=N1 (stereo unspecified) | Non-toxic | 11.1 | 
Cl.NC1=NC(c2ccc(F)cc2)NC(NCCc2ccc(Cl)c(Cl)c2)=N1 (stereo unspecified) | Non-toxic | 8.41 | 
CC1(C)N=C(N)N=C(NCCCOc2ccc(Cl)cc2)N1.Cl | Non-toxic | 11.3 | 
Cl.NC1=NC(c2ccccc2)NC(NCCCOc2ccc(Cl)cc2)=N1 (stereo unspecified) | Non-toxic | 7.11 | 
Cl.NC1=NC(c2ccc(C(F)(F)F)cc2)NC(NCCCOc2ccc(Cl)cc2)=N1 (stereo unspecified) | Non-toxic | 5.54 | 
Cl.NC1=NC(c2ccccc2)NC(NCCCOc2ccc(Cl)c(Cl)c2)=N1 (stereo unspecified) | Non-toxic | 6.73 | 
Cl.NC1=NC(c2ccccc2)NC(NCCCOc2c(Cl)cc(Cl)cc2Cl)=N1 (stereo unspecified) | Non-toxic | 4.32 | 
Cl.NC1=NC(c2ccco2)NC(NCCCOc2ccc(Cl)cc2)=N1 (stereo unspecified) | Non-toxic | 0.99 | 5
Cl.NC1=NC(c2ccc([N+](=O)[O-])cc2)NC(NCCCOc2ccc(Cl)cc2)=N1 (stereo unspecified) | Non-toxic | 7.39 | 
Cl.NC1=NC(c2ccccc2Cl)NC(NCCCOc2ccc(Cl)cc2)=N1 (stereo unspecified) | Non-toxic | 6.66 | 
Cl.NC1=NC(C2CCCCC2)NC(NCCCOc2ccc(Cl)cc2)=N1 (stereo unspecified) | Non-toxic | 4.59 | 
Cl.NC1=NC2(CCCCC2)NC(NCCCOc2ccc(Cl)cc2)=N1 | Non-toxic | 7.94 | 
COc1ccc(C2N=C(N)N=C(NCCCOc3ccc(Cl)cc3)N2)cc1.Cl (stereo unspecified) | Non-toxic | 6.66 | 
CN(C)c1ccc(C2N=C(N)N=C(NCCCOc3ccc(Cl)cc3)N2)cc1.Cl (stereo unspecified) | Non-toxic | 44.8 | 
Cl.NC1=NC(c2ccc(F)cc2)NC(NCCCOc2ccc(Cl)cc2)=N1 (stereo unspecified) | Non-toxic | 6.21 | 
Cl.NC1=NC(c2ccccc2)NC(NCCCSc2ccc(Cl)cc2)=N1 (stereo unspecified) | Non-toxic | 1.3 | 5
CC1(C)N=C(N)N=C(NCCCSc2ccc(Cl)cc2)N1.Cl | Non-toxic | 7.84 | 
Cl.NC1=NC(c2ccccc2)NC(NCCCOc2ccccc2Cl)=N1 (stereo unspecified) | Non-toxic | 4.53 | 
Cl.NC1=NC(c2ccccc2)NC(NCCCOc2ccc(Cl)cc2Cl)=N1 (stereo unspecified) | Non-toxic | 4.52 | 
Cl.NC1=NC(c2ccccc2)NC(NCCCOc2ccccc2F)=N1 (stereo unspecified) | Non-toxic | 10.8 | 
Cl.NC1=NC(c2ccccc2)NC(NCCCOc2ccc([N+](=O)[O-])cc2)=N1 (stereo unspecified) | Non-toxic | 3.87 | 
COc1ccc(OCCCNC2=NC(N)=NC(c3ccccc3)N2)cc1.Cl (stereo unspecified) | Non-toxic | 12.3 | 
CC1(C)N=C(N)N=C(NCCCCOc2ccc(Cl)cc2)N1.Cl | Non-toxic | 7.2 | 
Cl.NC1=NC(c2ccccc2)NC(NCCCCOc2ccc(Cl)cc2)=N1 (stereo unspecified) | Non-toxic | 2.71 | 5
Cl.NC1=NC(c2ccccc2)NC(NCCCCCOc2ccc(Cl)cc2)=N1 (stereo unspecified) | Non-toxic | 1.36 | 5
CC1(C)N=C(N)N=C(N)N1c1ccc(Cl)cc1 [CYCLOGUANIL] |  | 5 | 
